Data reported in patent publication US20140121256A1, “METHOD OF TREATING MUSCULAR WEAKNESS COMPRISING ADMINISTERING A COMPOSITION COMPRISING AN EFFECTIVE AMOUNT OF HISTAMINE AND/OR SEROTONIN” (BEECH TREE LABS, INC., priority 2012, published 2014).

How the values were obtained:
[1] = test system: normal human BioArtificial Muscles (mBAMs engineered from human skeletal myoblasts); test: Tetanic (active) force of mBAMs, MyoForce Analysis System; type: cell-based; conditions: 80 nM; after 3-4 days of drug treatment; p<0.001
Description: According to this example, a composition comprising histamine and serotonin was administered at 6 different concentrations on normal human BioArtificial Muscles (mBAMs engineered from human skeletal rmyoblasts) for effects on strength (active force generation) and injury using Myomics' MyoForce Analysis System (MFAS™).
A solution comprising 200 times the dosage of the histamine and serotonin present in a typical therapeutic drop (i.e., 1 mg histamine and 16 mg serotonin in PBS) stored at 4° C. was administered to a cell culture comprising human skeletal muscle cells previously isolated from a normal (disease-free) person were used for this study. Cells were expanded in culture in a Growth Medium optimized for human skeletal muscle (SKGM/15) for 5 days before engineering into bioartificial muscles (mBAMs). On the day of engineering, mBAMs, cells were trypsinized and counted following standard laboratory protocols.
A sterile 96 well MyoForce plate was used for tissue engineering the mBAMs. Myomics' Robotic Tissue Engineering Platform was used to engineer 72 mBAMs in approximately 10 minutes by mixing cells with an extracellular matrix solution and casting in the plate wells. The plate containing the mBAMs was maintained for 2 days at 37° C. in SKGM/15, then incubated in an optimized differentiation medium for the remainder of the experiment. […]

[2] = test system: C57BL/10SCSN-Dmd^mdx/J mice; test: Grip strength tests (triangle and mesh) in mdx mouse model of DMD; type: in vivo; conditions: 1×, 4×, 8×, twice daily
From the text: Female mouse strain C57BL/10SCSN-Dmd^mdx/J (Jackson laboratories) is a strain of mice that is most similar in affliction to humans with DMD. The mdx mutation of Dmd is recessive and heterozygous females are visually indistinguishable from wild-type mice. […] One of the drawbacks of this mouse model is that by six weeks (10 weeks of age) the afflicted mice mimic the wild type control mice. This is attributed to the compensatory function of the dystrophin-related protein utrophin, which is highly up regulated in regenerating muscle fibers in adult Dmd^mdx mutants. The histamine and serotonin formulation was evaluated using this mouse model to determine its effects on DMD.
The first experiment conducted focused on whether any difference could be detected in mice receiving the histamine and serotonin formulation vs. control.
Injections started the following day.
Measurements to determine effectiveness of histamine and serotonin formulation were conducted using two different methods: 1. a wire hang test was utilized to see how long the mice were able to hang onto a wire before releasing and falling, and 2. a grip strength meter device (Columbus Instruments) was used to measure the peak force exerted by the animal when pulled. […]
For both of the grip strength tests, ten measurements were taken per mouse and the average was recorded.

Structure (SMILES): CC(=O)OCC(=O)[C@@]12N=C(C)O[C@@H]1C[C@H]1[C@@H]3CCC4=CC(=O)C=C[C@]4(C)[C@H]3[C@@H](O)C[C@@]12C [deflazacort]
- increase in tetanic force compared to untreated controls [1]: 32%

Structure (SMILES): NCCc1c[nH]cn1 [histamine]
- triangle and mesh grip strength vs PBS control ([2]; third experiment, histamine alone 0.4×): improves performance in both the Triangle and Mesh tests

Structure (SMILES): NCCc1c[nH]c2ccc(O)cc12 [serotonin, 5-hydroxytryptamine]
- grip strength tests vs PBS controls ([2]; fourth experiment, serotonin alone 0.4×): no statistically significant differences
